Assay results taken from ChEMBL document CHEMBL1133057, “Synthesis and in vitro antibacterial activity of 3-[N-methyl-N-(3-methyl-1,3-thiazolium-2-yl)aminolmethyl cephalosporin derivatives” (2000).
Converted amounts (≈) assume the structure as drawn.

Legend:
Escherichia coli [1] = assay: Compound was tested in vitro for its minimum inhibitory concentration by serial 2-fold agar dilution Muller Hinton method against Escherichia coli O 55; type: functional
Pseudomonas aeruginosa [2] = assay: Compound was tested in vitro for its minimum inhibitory concentration by serial 2-fold agar dilution Muller Hinton method against Pseudomonas aeruginosa 9027; type: functional
Streptococcus pyogenes [3] = assay: Compound was tested in vitro for its minimum inhibitory concentration by serial 2-fold agar dilution Muller Hinton method against Streptococcus pyogenes A 308; type: functional
Klebsiella aerogenes = assay: Compound was tested in vitro for its minimum inhibitory concentration by serial 2-fold agar dilution Muller Hinton method against Klebsiella aerogenes 1522 E; type: functional
Escherichia coli [4] = assay: Compound was tested in vitro for its minimum inhibitory concentration by serial 2-fold agar dilution Muller Hinton method against Escherichia coli 1507E; type: functional
Pseudomonas aeruginosa [5] = assay: Compound was tested in vitro for its minimum inhibitory concentration by serial 2-fold agar dilution Muller Hinton method against Pseudomonas aeruginosa 1771 M; type: functional
Pseudomonas aeruginosa [6] = assay: Compound was tested in vitro for its minimum inhibitory concentration by serial 2-fold agar dilution Muller Hinton method against Pseudomonas aeruginosa 1771; type: functional
Staphylococcus aureus [7] = assay: Compound was tested in vitro for its minimum inhibitory concentration by serial 2-fold agar dilution Muller Hinton method against Staphylococcus aureus 503; type: functional
Escherichia coli [8] = assay: Compound was tested in vitro for its minimum inhibitory concentration by serial 2-fold agar dilution Muller Hinton method against Escherichia coli DC 0; type: functional
Enterobacter cloacae [9] = assay: Compound was tested in vitro for its minimum inhibitory concentration by serial 2-fold agar dilution Muller Hinton method against Enterobacter cloacae P99; type: functional
Enterobacter cloacae [10] = assay: Compound was tested in vitro for its minimum inhibitory concentration by serial 2-fold agar dilution Muller Hinton method against Enterobacter cloacae 1321; type: functional
Klebsiella oxytoca = assay: Compound was tested in vitro for its minimum inhibitory concentration by serial 2-fold agar dilution Muller Hinton method against Klebsiella oxytoca 1082 E; type: functional
Escherichia coli [11] = assay: Compound was tested in vitro for its minimum inhibitory concentration by serial 2-fold agar dilution Muller Hinton method against Escherichia coli TEM; type: functional
Escherichia coli [12] = assay: Compound was tested in vitro for its minimum inhibitory concentration by serial 2-fold agar dilution Muller Hinton method against Escherichia coli DC 2; type: functional
Salmonella typhimurium = assay: Compound was tested in vitro for its minimum inhibitory concentration by serial 2-fold agar dilution Muller Hinton method against Salmonella Typhimurium; type: functional, Salmonella enterica subsp. enterica serovar Typhimurium; conditions: Salmonella enterica
Staphylococcus aureus [13] = assay: Compound was tested in vitro for its minimum inhibitory concentration by serial 2-fold agar dilution Muller Hinton method against Staphylococcus aureus 285; type: functional
Streptococcus pyogenes [14] = assay: Compound was tested in vitro for its minimum inhibitory concentration by serial 2-fold agar dilution Muller Hinton method against Streptococcus pyogenes 8b; type: functional
Streptococcus pyogenes [15] = assay: Compound was tested in vitro for its minimum inhibitory concentration by serial 2-fold agar dilution Muller Hinton method against Streptococcus pyogenes A77; type: functional
Pseudomonas aeruginosa [16] = assay: Compound was tested in vitro for its minimum inhibitory concentration by serial 2-fold agar dilution Muller Hinton method against Pseudomonas aeruginosa 1592 E; type: functional
Staphylococcus aureus [17] = assay: Compound was tested in vitro for its minimum inhibitory concentration by serial 2-fold agar dilution Muller Hinton method against Staphylococcus aureus SG511; type: functional

SMILES	MIC (Escherichia coli [1])	MIC (Pseudomonas aeruginosa [2])	MIC (Streptococcus pyogenes [3])	MIC (Klebsiella aerogenes)	MIC (Escherichia coli [4])	MIC (Pseudomonas aeruginosa [5])	MIC (Pseudomonas aeruginosa [6])	MIC (Staphylococcus aureus [7])	MIC (Escherichia coli [8])	MIC (Enterobacter cloacae [9])	MIC (Enterobacter cloacae [10])	MIC (Klebsiella oxytoca)	MIC (Escherichia coli [11])	MIC (Escherichia coli [12])	MIC (Salmonella typhimurium)	MIC (Staphylococcus aureus [13])	MIC (Streptococcus pyogenes [14])	MIC (Streptococcus pyogenes [15])	MIC (Pseudomonas aeruginosa [16])	MIC (Staphylococcus aureus [17])
CO/N=C(\C(=O)NC1C(=O)N2C(C(=O)[O-])=C(CN(C)c3scc(C)[n+]3C)CSC12)c1csc(N)n1 (stereo not given)	0.025 µg/mL (≈ 0.0465 µM)	25 µg/mL (≈ 46.5 µM)	0.013 µg/mL (≈ 0.0242 µM)	0.049 µg/mL (≈ 0.0911 µM)	0.049 µg/mL (≈ 0.0911 µM)	1.56 µg/mL (≈ 2.91 µM)	12.5 µg/mL (≈ 23.2 µM)	0.781 µg/mL (≈ 1.45 µM)	0.049 µg/mL (≈ 0.0911 µM)	25 µg/mL (≈ 46.5 µM)	0.013 µg/mL (≈ 0.0242 µM)	6.25 µg/mL (≈ 11.6 µM)	0.049 µg/mL (≈ 0.0911 µM)	0.049 µg/mL (≈ 0.0911 µM)	0.049 µg/mL (≈ 0.0911 µM)	1.56 µg/mL (≈ 2.91 µM)	> 100 µg/mL	0.004 µg/mL (≈ 0.00744 µM)	25 µg/mL (≈ 46.5 µM)	0.781 µg/mL (≈ 1.45 µM)
CO/N=C(\C(=O)N[C@@H]1C(=O)N2C(C(=O)O)=C(COC(C)=O)CS[C@H]12)c1csc(N)n1 [CEFOTAXIME]	0.007 µg/mL (≈ 0.0154 µM)	25 µg/mL (≈ 54.9 µM)	0.007 µg/mL (≈ 0.0154 µM)	0.025 µg/mL (≈ 0.0549 µM)	0.025 µg/mL (≈ 0.0549 µM)	0.098 µg/mL (≈ 0.215 µM)	3.12 µg/mL (≈ 6.86 µM)	0.781 µg/mL (≈ 1.71 µM)	0.025 µg/mL (≈ 0.0549 µM)	100 µg/mL (≈ 220 µM)	0.007 µg/mL (≈ 0.0154 µM)	1.56 µg/mL (≈ 3.43 µM)	0.025 µg/mL (≈ 0.0549 µM)	0.013 µg/mL (≈ 0.0285 µM)	0.025 µg/mL (≈ 0.0549 µM)	3.12 µg/mL (≈ 6.86 µM)	100 µg/mL (≈ 220 µM)	0.002 µg/mL (≈ 0.00439 µM)	12.5 µg/mL (≈ 27.4 µM)	1.56 µg/mL (≈ 3.43 µM)
CO/N=C(\C(=O)N[C@@H]1C(=O)N2C(C(=O)[O-])=C(C[n+]3cccc4c3CCC4)CS[C@H]12)c1csc(N)n1 [CEFPIROME]	0.025 µg/mL (≈ 0.0486 µM)	3.12 µg/mL (≈ 6.07 µM)	0.007 µg/mL (≈ 0.0136 µM)	0.025 µg/mL (≈ 0.0486 µM)	0.025 µg/mL (≈ 0.0486 µM)	0.391 µg/mL (≈ 0.76 µM)	0.781 µg/mL (≈ 1.52 µM)	0.098 µg/mL (≈ 0.19 µM)	0.013 µg/mL (≈ 0.0253 µM)	3.12 µg/mL (≈ 6.07 µM)	0.013 µg/mL (≈ 0.0253 µM)	1.56 µg/mL (≈ 3.04 µM)	0.049 µg/mL (≈ 0.0952 µM)	0.049 µg/mL (≈ 0.0952 µM)	0.025 µg/mL (≈ 0.0486 µM)	0.781 µg/mL (≈ 1.52 µM)	1.56 µg/mL (≈ 3.04 µM)	0.007 µg/mL (≈ 0.0136 µM)	1.56 µg/mL (≈ 3.04 µM)	0.391 µg/mL (≈ 0.76 µM)

Second part, the molecule after the results:

MIC (Escherichia coli [1])	MIC (Pseudomonas aeruginosa [2])	MIC (Streptococcus pyogenes [3])	MIC (Klebsiella aerogenes)	MIC (Escherichia coli [4])	MIC (Pseudomonas aeruginosa [5])	MIC (Pseudomonas aeruginosa [6])	MIC (Staphylococcus aureus [7])	MIC (Escherichia coli [8])	MIC (Enterobacter cloacae [9])	MIC (Enterobacter cloacae [10])	MIC (Klebsiella oxytoca)	MIC (Escherichia coli [11])	MIC (Escherichia coli [12])	MIC (Salmonella typhimurium)	MIC (Staphylococcus aureus [13])	MIC (Streptococcus pyogenes [14])	MIC (Streptococcus pyogenes [15])	MIC (Pseudomonas aeruginosa [16])	MIC (Staphylococcus aureus [17])	SMILES
0.025 µg/mL (≈ 0.0453 µM)	25 µg/mL (≈ 45.3 µM)	0.013 µg/mL (≈ 0.0236 µM)	0.049 µg/mL (≈ 0.0888 µM)	0.098 µg/mL (≈ 0.178 µM)	0.391 µg/mL (≈ 0.709 µM)	3.12 µg/mL (≈ 5.66 µM)	0.391 µg/mL (≈ 0.709 µM)	0.098 µg/mL (≈ 0.178 µM)	25 µg/mL (≈ 45.3 µM)	0.025 µg/mL (≈ 0.0453 µM)	6.25 µg/mL (≈ 11.3 µM)	0.098 µg/mL (≈ 0.178 µM)	0.025 µg/mL (≈ 0.0453 µM)	0.049 µg/mL (≈ 0.0888 µM)	1.56 µg/mL (≈ 2.83 µM)	50 µg/mL (≈ 90.6 µM)	0.013 µg/mL (≈ 0.0236 µM)	12.5 µg/mL (≈ 22.7 µM)	0.781 µg/mL (≈ 1.42 µM)	CCO/N=C(\C(=O)NC1C(=O)N2C(C(=O)[O-])=C(CN(C)c3scc(C)[n+]3C)CSC12)c1csc(N)n1 (stereo not given)
0.025 µg/mL (≈ 0.0453 µM)	50 µg/mL (≈ 90.6 µM)	0.013 µg/mL (≈ 0.0236 µM)	0.098 µg/mL (≈ 0.178 µM)	0.049 µg/mL (≈ 0.0888 µM)	1.56 µg/mL (≈ 2.83 µM)	25 µg/mL (≈ 45.3 µM)	0.781 µg/mL (≈ 1.42 µM)	0.049 µg/mL (≈ 0.0888 µM)	12.5 µg/mL (≈ 22.7 µM)	0.013 µg/mL (≈ 0.0236 µM)	6.25 µg/mL (≈ 11.3 µM)	0.049 µg/mL (≈ 0.0888 µM)	0.098 µg/mL (≈ 0.178 µM)	0.098 µg/mL (≈ 0.178 µM)	1.56 µg/mL (≈ 2.83 µM)	> 100 µg/mL	0.007 µg/mL (≈ 0.0127 µM)	50 µg/mL (≈ 90.6 µM)	1.56 µg/mL (≈ 2.83 µM)	CO/N=C(\C(=O)NC1C(=O)N2C(C(=O)[O-])=C(CN(C)c3sc(C)c(C)[n+]3C)CSC12)c1csc(N)n1 (stereo not given)
0.025 µg/mL (≈ 0.0393 µM)	25 µg/mL (≈ 39.3 µM)	0.013 µg/mL (≈ 0.0204 µM)	0.049 µg/mL (≈ 0.0771 µM)	0.098 µg/mL (≈ 0.154 µM)	0.391 µg/mL (≈ 0.615 µM)	3.12 µg/mL (≈ 4.92 µM)	0.391 µg/mL (≈ 0.615 µM)	0.098 µg/mL (≈ 0.154 µM)	25 µg/mL (≈ 39.3 µM)	0.025 µg/mL (≈ 0.0393 µM)	6.25 µg/mL (≈ 9.83 µM)	0.098 µg/mL (≈ 0.154 µM)	0.025 µg/mL (≈ 0.0393 µM)	0.049 µg/mL (≈ 0.0771 µM)	1.56 µg/mL (≈ 2.46 µM)	50 µg/mL (≈ 78.6 µM)	0.013 µg/mL (≈ 0.0204 µM)	12.5 µg/mL (≈ 19.7 µM)	0.781 µg/mL (≈ 1.23 µM)	C=CCO/N=C(\C(=O)NC1C(=O)N2C(C(=O)[O-])=C(CN(C)c3sc(C(=O)OCC)c(C)[n+]3C)CSC12)c1csc(N)n1 (stereo not given)
0.049 µg/mL (≈ 0.0786 µM)	100 µg/mL (≈ 160 µM)	0.007 µg/mL (≈ 0.0112 µM)	0.049 µg/mL (≈ 0.0786 µM)	0.098 µg/mL (≈ 0.157 µM)	1.56 µg/mL (≈ 2.51 µM)	25 µg/mL (≈ 40.1 µM)	0.781 µg/mL (≈ 1.25 µM)	0.098 µg/mL (≈ 0.157 µM)	3.12 µg/mL (≈ 5.01 µM)	0.025 µg/mL (≈ 0.0401 µM)	6.25 µg/mL (≈ 10 µM)	0.195 µg/mL (≈ 0.313 µM)	0.049 µg/mL (≈ 0.0786 µM)	0.049 µg/mL (≈ 0.0786 µM)	1.56 µg/mL (≈ 2.51 µM)	25 µg/mL (≈ 40.1 µM)	0.004 µg/mL (≈ 0.00641 µM)	50 µg/mL (≈ 80.2 µM)	1.56 µg/mL (≈ 2.51 µM)	CCO/N=C(\C(=O)NC1C(=O)N2C(C(=O)[O-])=C(CN(C)c3sc(C(=O)OCC)c(C)[n+]3C)CSC12)c1csc(N)n1 (stereo not given)
